Measured values as given in article PMC5522267, “Targeting PEPT1: a novel strategy to improve the antitumor efficacy of doxorubicin in human hepatocellular carcinoma therapy” (Oncotarget, 2017).
Where a name gives a salt, the structure may show the parent alone. Read-outs that look alike come from different tables or passages of the source. Marks after values point to notes of the source that are not given here.

Assays:
[1] = Blood routine, Bel-7402 HCC mice; format: in vivo, nude mice; settings: high dose, after treatment
Caco2 [2] = test: Drug concentration in tumor cells by HPLC, Caco2; format: cell-based, human; settings: incubated 2 hours
[3] = Blood routine, HepG2 HCC mice; format: in vivo, nude mice; settings: low dose, after treatment
Bel-7402 HCC = settings: for Inhibition rate: from tumor weight vs control
Excerpt: (§1) An animal model of HCC cells (Bel-7402, HepG2) transplanted into nude mice was established according to the method described in ref. 10.

HepG2 HCC = test system: HepG2 HCC
Excerpt: as §1

PEPT1 = target: T1, PEPT1 (Homo sapiens, UniProt P46059); test: Uptake, dynamic and competitive inhibition test; format: cell-based; settings: inhibitors 0.01 mg/ml preincubated 30 mins, then drug 1 h
T1 construct: endogenous in cells; host or cells: Bel-7402, HepG2 (human HCC cells); Caco-2
T1 sequence (P46059 1-708): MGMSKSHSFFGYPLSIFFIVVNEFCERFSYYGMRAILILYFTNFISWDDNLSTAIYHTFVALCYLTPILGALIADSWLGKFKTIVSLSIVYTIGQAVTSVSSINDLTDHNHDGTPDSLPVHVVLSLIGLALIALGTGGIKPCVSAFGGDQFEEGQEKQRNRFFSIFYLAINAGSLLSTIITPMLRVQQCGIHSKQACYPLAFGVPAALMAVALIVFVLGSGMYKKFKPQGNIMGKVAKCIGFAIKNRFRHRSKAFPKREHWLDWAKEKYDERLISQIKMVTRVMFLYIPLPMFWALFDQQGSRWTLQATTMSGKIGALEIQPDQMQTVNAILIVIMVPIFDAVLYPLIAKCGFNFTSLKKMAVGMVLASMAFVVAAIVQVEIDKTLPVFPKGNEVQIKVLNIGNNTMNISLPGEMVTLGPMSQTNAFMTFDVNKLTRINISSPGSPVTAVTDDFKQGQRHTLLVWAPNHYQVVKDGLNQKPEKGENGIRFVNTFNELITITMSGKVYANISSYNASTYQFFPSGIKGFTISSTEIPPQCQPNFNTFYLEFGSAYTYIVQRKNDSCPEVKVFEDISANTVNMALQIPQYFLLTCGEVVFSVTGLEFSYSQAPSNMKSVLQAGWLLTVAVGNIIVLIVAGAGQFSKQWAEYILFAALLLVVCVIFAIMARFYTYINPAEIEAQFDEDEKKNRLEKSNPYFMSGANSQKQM
Protocol: The transport of Doxorubicin-tripeptide conjugate by PEPT1 was evaluated by time course, dynamic and competitive inhibition tests. The uptake study was performed on the confluent cell monolayer as described previously.
The uptake buffer was HBSS buffer (0.952 mM CaCl2, 5.36 mM KCl, 0.441 mM KH2PO4, 0.812 mM MgSO4, 136.7 mM NaCl, 0.385 mM Na2HPO4, 25 mM D-glucose, and 10 mM HEPES) adjusted to pH 6.0. […] Then four different initial concentrations (0.025 mg/ml, 0.05 mg/ml, 0.10 mg/ml, 0.15 mg/ml) of Doxorubicin-tripeptide conjugate were incubated with HCC cell monolayer at pH 6.0 for 120 min. At last, 0.05 mg/ml Doxorubicin-tripeptide conjugate was fed to HCC cells at different pH uptake buffer (5.4, 6, 7.4 and 8.4) for 120 min. Inhibition tests were conducted by preincubating the cells with competitive compounds Gly-Sar, Gly-Gln, Gly-Gly-Gly (0.01 mg/ml) respectively for 30 mins and then incubated with Doxorubicin-tripeptide conjugate (0.05 mg/ml) for 1 h. After removing the buffer and rapidly washing 3 times with ice-cold PBS, the cellular uptake was specifically examined with a Multi-Mode Reader (BioTek, Synergy 2, USA) with Excitation 485/20 and Emission 590/35.

Caco2 [4] = test: cells; format: cell-based, human; settings: Homo sapiens, Caco-2
Protocol: (§2) Cells in the growth log phase were seeded in 96-well plate (200 ul/well) with density 8×10^3/well for 24 hours, then the drugs were added. The concentration of Doxorubicin-tripeptide conjugate was 0.005 mg/ml, 0.01 mg/ml, 0.02 mg/ml, 0.04 mg/ml, 0.06 mg/ml in turn, while Doxorubicin followed by 0.005 mg/ml, 0.01 mg/ml, 0.02 mg/ml, 0.04 mg/ml, 0.06 mg/ml with a same dosing volume 100 μl. Each concentration group included five equal wells and was provided with a control well of medium alone as a negative control. Add 20 μl of MTT Reagent ( 5 mg/ml, Sigma) to each well, including controls and continue to be incubated at 37°C for 4 hours. Remove the supernatant, drop plus DMSO (200 μl/well) and measure the OD value in each well, including the blanks, at 490 nm by a Multi-Mode Reader (BioTek, Synergy 2, USA). To calculate the inhibitory rate and the half maximal inhibitory concentration (IC50) according to the formula: Inhibitory rate =(1-( the dosing group OD/the control group OD )) × 100%, IC50 = lg^-1 (Xm-i (ΣP-0.5)) (Xm: the logarithm of maximum concentration, I: the logarithm of maximum dose/ adjacent dose, P: the sum of each group inhibitory rate, Pm: the maximum inhibitory rate, Pn: the minimum inhibitory rate ).

HepG2 = test: cells; format: cell-based, human; settings: Homo sapiens, HepG2, given as fraction, read-out: Inhibitory effect by MTT
Protocol: as §2

Bel-7402 = test: cells; format: cell-based, human; settings: Homo sapiens
Protocol: as §2

Question: For COc1cccc2c1C(=O)c1c(O)c3c(c(O)c1C2=O)C[C@@](O)(C(=O)CO)C[C@@H]3O[C@H]1C[C@H](N)[C@H](O)[C@H](C)O1 [Doxorubicin, Doxorubicin hydrochloride], which PLT [1] is on record?
Answer: Its PLT is 81.33 ± 27.50^a ×10^9/l.

Question: And the RBC [1]?
Answer: Its RBC is 6.90 ± 2.32 ×10^12/l.

Question: What about the WBC [1] of the same compound?
Answer: The WBC was 3.66 ± 2.58^a ×10^9/l.

Question: And the “drug concentration in tumor cells” value (Caco2 [2])?
Answer: Its value is 2730 ± 40 ng/mL.

Question: And the PLT [3]?
Answer: Its PLT is 72.53 ± 25.46 ^a ×10^9/l.

Question: And the RBC [3]?
Answer: The RBC was 7.55 ± 1.33 ×10^12/l.

Question: What about the WBC [3] of the same compound?
Answer: The WBC was 4.90 ± 3.60 ×10^9/l.

Question: What about the median survival time (Bel-7402 HCC; Bel-7402, high dose group) of the same compound?
Answer: The median survival time was 25.5 days.

Question: And the deaths during treatment (Bel-7402 HCC; Bel-7402, high dose group, 5W)?
Answer: Its deaths during treatment is 1 death and 2 deaths and 1 death in the treatment of 2W+, 3W+ and 4W+ respectively.

Question: And the “Tumor volume, Before treatment” value (Bel-7402 HCC; Bel-7402 HCC mice, baseline)?
Answer: The value was 0.38 ± 0.28 cm^2.

Question: What about the “Tumor volume (third column, no sub-head; actual volume at end of experiment)” value (Bel-7402 HCC; Bel-7402 HCC mice, high dose) of the same compound?
Answer: Its value is 0.27 ± 0.16 cm^2.

Question: And the “Tumor volume, After treatment” value (Bel-7402 HCC; Bel-7402 HCC mice, high dose: Doxorubicin 60 mg/m^2, conjugate 300 mg/m^2)?
Answer: Its value is 0.42 ± 0.33 cm^2.

Question: And the Tumor weight (Bel-7402 HCC; Bel-7402 HCC mice, high dose, end of treatment)?
Answer: Its Tumor weight is 1.30 ± 0.41 g.

Question: What about the Inhibition rate (Bel-7402 HCC; Bel-7402 HCC mice, high dose) of the same compound?
Answer: Its Inhibition rate is 32.35%.

Question: And the Inhibition rate (Bel-7402 HCC; Bel-7402 HCC mice, high dose, listed as C)?
Answer: The Inhibition rate was 32.35^c %.

Question: What about the “Mice weight, Before treatment” value (Bel-7402 HCC; mouse, in vivo) of the same compound?
Answer: Its value is 23.15 ± 1.60 g.

Question: And the median survival time (HepG2 HCC; HepG2, low dose group)?
Answer: Its median survival time is 26.5 days.

Question: What about the deaths during treatment (HepG2 HCC; HepG2, low dose group, 5W) of the same compound?
Answer: The deaths during treatment was 3 deaths and 1 death respectively in the treatment of 3W+ and 4W+.

Question: What about the “Tumor volume, Before treatment” value (HepG2 HCC; HepG2 HCC mice, baseline) of the same compound?
Answer: The value was 0.32 ± 0.30 cm^2.

Question: And the “Tumor volume (third column, no sub-head; actual volume at end of experiment)” value (HepG2 HCC; HepG2 HCC mice, low dose)?
Answer: The value was 0.50 ± 0.46 cm^2.

Question: And the “Tumor volume, After treatment” value (HepG2 HCC; HepG2 HCC mice, low dose: Doxorubicin 40 mg/m^2, conjugate 200 mg/m^2)?
Answer: Its value is 0.64 ± 0.61 cm^2.

Question: What about the Tumor weight (HepG2 HCC; HepG2 HCC mice, low dose, end of treatment) of the same compound?
Answer: Its Tumor weight is 1.66 ± 0.98 g.

Question: What about the “Mice weight, Before treatment” value (HepG2 HCC; mouse, in vivo) of the same compound?
Answer: The value was 21.23 ± 4.97 g.

Question: What about the “uptake in presence of inhibitors Gly-Sar, Gly-Gln or Gly-Gly-Gly” value (PEPT1) of the same compound?
Answer: Its value is “not”.

Question: What about the IC50 (Caco2 [4]; Caco2, MTT, read-out: IC50) of the same compound?
Answer: Its IC50 is 15.4 µg/mL.

Question: What about the inhibition at 5 µg/mL (Caco2 [4]; Caco2, drug 0.005 mg/ml, given as fraction, read-out: Inhibitory effect by MTT) of the same compound?
Answer: Its inhibition at 5 µg/mL is 34.6%.

Question: And the inhibition at 10 µg/mL (Caco2 [4]; Caco2, drug 0.01 mg/ml, given as fraction, read-out: Inhibitory effect by MTT)?
Answer: Its inhibition at 10 µg/mL is 50%.

Question: And the inhibition at 20 µg/mL (Caco2 [4]; Caco2, drug 0.02 mg/ml, given as fraction, read-out: Inhibitory effect by MTT)?
Answer: The inhibition at 20 µg/mL was 57.9%.

Question: And the inhibition at 40 µg/mL (Caco2 [4]; Caco2, drug 0.04 mg/ml, given as fraction, read-out: Inhibitory effect by MTT)?
Answer: The inhibition at 40 µg/mL was 62.3%.

Question: And the inhibition at 80 µg/mL (Caco2 [4]; Caco2, drug 0.08 mg/ml, given as fraction, read-out: Inhibitory effect by MTT)?
Answer: The inhibition at 80 µg/mL was 78.9%.

Question: What about the inhibition at 5 µg/mL (HepG2; drug 0.005 mg/ml) of the same compound?
Answer: Its inhibition at 5 µg/mL is 34.6%.

Question: And the inhibition at 10 µg/mL (HepG2; drug 0.01 mg/ml)?
Answer: The inhibition at 10 µg/mL was 42.2%.

Question: What about the inhibition at 20 µg/mL (HepG2; drug 0.02 mg/ml) of the same compound?
Answer: Its inhibition at 20 µg/mL is 57.3%.

Question: And the inhibition at 40 µg/mL (HepG2; drug 0.04 mg/ml)?
Answer: Its inhibition at 40 µg/mL is 66.6%.

Question: What about the inhibition at 80 µg/mL (HepG2; drug 0.08 mg/ml) of the same compound?
Answer: Its inhibition at 80 µg/mL is 87.9%.

Question: And the IC50 (Bel-7402; Bel-7402, MTT, read-out: IC50)?
Answer: The IC50 was 13.8 µg/mL.

Question: What about the inhibition at 5 µg/mL (Bel-7402; Bel-7402, drug 0.005 mg/ml, given as fraction, read-out: Inhibitory effect by MTT) of the same compound?
Answer: The inhibition at 5 µg/mL was 38.8%.

Question: And the inhibition at 10 µg/mL (Bel-7402; Bel-7402, drug 0.01 mg/ml, given as fraction, read-out: Inhibitory effect by MTT)?
Answer: Its inhibition at 10 µg/mL is 49.1%.

Question: And the inhibition at 20 µg/mL (Bel-7402; Bel-7402, drug 0.02 mg/ml, given as fraction, read-out: Inhibitory effect by MTT)?
Answer: The inhibition at 20 µg/mL was 61.2%.

Question: What about the inhibition at 40 µg/mL (Bel-7402; Bel-7402, drug 0.04 mg/ml, given as fraction, read-out: Inhibitory effect by MTT) of the same compound?
Answer: The inhibition at 40 µg/mL was 70%.

Question: And the inhibition at 80 µg/mL (Bel-7402; Bel-7402, drug 0.08 mg/ml, given as fraction, read-out: Inhibitory effect by MTT)?
Answer: Its inhibition at 80 µg/mL is 79.8%.
